Measurements taken from US11180487B2, “Substituted cyanoindoline derivatives as NIK inhibitors” (Janssen Pharmaceutica NV, priority 2016, dated 2021).
Like-named read-outs stand apart in the source and are kept apart here.

What was measured:
[1] = biological target: recombinant human NF-kappaB-inducing kinase (NIK/MAP3K14) (Homo sapiens, UniProt Q99558); experiment: Inhibition of auto-phosphorylation of recombinant human NIK/MAP3K14 activity (AlphaScreen), Biological Assay A; format: biochemical; conditions: averaged values over all measurements on all batches
Description: Inhibition of Auto-Phosphorylation of Recombinant Human NF-kappaB-Inducing Kinase (NIK/MAP3K14) Activity (AlphaScreen®)
NIK/MAP3K14 auto-phosphorylation activity was measured using the AlphaScreen® (αscreen) format (Perkin Elmer). All compounds tested were dissolved in dimethyl sulfoxide (DMSO) and further dilutions were made in assay buffer. Final DMSO concentration was 1% (v/v) in assays. Assay buffer was 50 mM Tris pH 7.5 containing 1 mM EGTA (ethylene glycol tetraacetic acid), 1 mM DTT (dithiothreitol), 0.1 mM Na3VO4, 5 mM MgCl2, 0.01% Tween® 20. Assays were carried out in 384 well Alphaplates (Perkin Elmer). Incubations consisted of compound, 25 microM Adenosine-5′-triphosphate (ATP), and 0.2 nM NIK/MAP3K14. Incubations were initiated by addition of GST-tagged NIK/MAP3K14 enzyme, carried out for 1 h at 25° C. and terminated by addition of stop buffer containing anti-phospho-IKK Ser176/180 antibody. Protein A Acceptor and Glutathione-Donor beads were added before reading using an EnVision® Multilabel Plate Reader (Perkin Elmer). Signal obtained in the wells containing blank samples was subtracted from all other wells and IC50's were determined by fitting a sigmoidal curve to % inhibition of control versus Log10 compound concentration.

[2] = tested on: JJN-3 (NIK translocated) multiple myeloma cells; experiment: Antiproliferative activity on JJN-3 multiple myeloma cells (CellTiter-Glo, 96 hr), Biological Assay C; format: cell-based, human; conditions: JJN-3 (NIK translocated) cells, averaged values, read-out: JJN-3 Proliferation inhibition (IC50 (nM))
Description: (§1) Determination of Antiproliferative Activity on JJN-3 (NIK Translocated) and KMS12-BM (NIK WT) Multiple Myeloma Cells
(§2) All compounds tested were dissolved in DMSO and further dilutions were made in culture medium. Final DMSO concentration was 0.3% (v/v) in cell proliferation assays. Viability was assessed using CellTiter-Glo cell viability assay kit (Promega). The human JJN-3 and KMS12-BM cells (DSMZ) were cultured in RPMI 1640 medium supplemented with 2 mM L-glutamine, and 10% fetal calf serum (PAA). Cells were routinely kept as suspension cells at 37° C. in a humidified 5% CO2 atmosphere. Cells were passaged at a seeding density of 0.2×10^6/ml twice a week. Cells were seeded in black tissue culture treated 96-well plates (Perkin Elmer). Densities used for plating ranged from 15000 (JJN3) to 20000 (KMS12BM) cells per well in a total volume of 135 μl medium. Drugs and/or solvents were added (15 μl) to a final volume of 150 μl. Following 96 hr of treatment, plates were removed from the incubator and allowed to equilibrate to room temperature for approx 10 min. 75 μl CellTiter-Glo reagent was added to each well that was then covered (Perkin Elmer Topseal) and shaken on plate shaker for 10 min. Luminescence was measured on a HTS Topcount (Perkin Elmer).
(§3) Within an experiment, the results for each treatment were the mean of 2 replicate wells. For initial screening purposes, compounds were tested using a 9 point dilution curve (serial 1:3 dilutions). For each experiment, controls (containing no drug) and a blank incubation (containing cells read at the time of compound addition) were run in parallel. The blank value was subtracted from all control and sample values. For each sample, the mean value for cell growth (in relative light units) was expressed as a percentage of the mean value for cell growth of the control.

[3] = tested on: KMS12-BM (NIK WT) multiple myeloma cells; experiment: Antiproliferative activity on KMS12-BM multiple myeloma cells (CellTiter-Glo, 96 hr), Biological Assay C; format: cell-based, human; conditions: averaged values, read-out: KMS-12 Proliferation inhibition (IC50 (nM))
Description: as §1, §2, §3

Chain of recombinant human NF-kappaB-inducing kinase (NIK/MAP3K14) (Q99558 whole entry): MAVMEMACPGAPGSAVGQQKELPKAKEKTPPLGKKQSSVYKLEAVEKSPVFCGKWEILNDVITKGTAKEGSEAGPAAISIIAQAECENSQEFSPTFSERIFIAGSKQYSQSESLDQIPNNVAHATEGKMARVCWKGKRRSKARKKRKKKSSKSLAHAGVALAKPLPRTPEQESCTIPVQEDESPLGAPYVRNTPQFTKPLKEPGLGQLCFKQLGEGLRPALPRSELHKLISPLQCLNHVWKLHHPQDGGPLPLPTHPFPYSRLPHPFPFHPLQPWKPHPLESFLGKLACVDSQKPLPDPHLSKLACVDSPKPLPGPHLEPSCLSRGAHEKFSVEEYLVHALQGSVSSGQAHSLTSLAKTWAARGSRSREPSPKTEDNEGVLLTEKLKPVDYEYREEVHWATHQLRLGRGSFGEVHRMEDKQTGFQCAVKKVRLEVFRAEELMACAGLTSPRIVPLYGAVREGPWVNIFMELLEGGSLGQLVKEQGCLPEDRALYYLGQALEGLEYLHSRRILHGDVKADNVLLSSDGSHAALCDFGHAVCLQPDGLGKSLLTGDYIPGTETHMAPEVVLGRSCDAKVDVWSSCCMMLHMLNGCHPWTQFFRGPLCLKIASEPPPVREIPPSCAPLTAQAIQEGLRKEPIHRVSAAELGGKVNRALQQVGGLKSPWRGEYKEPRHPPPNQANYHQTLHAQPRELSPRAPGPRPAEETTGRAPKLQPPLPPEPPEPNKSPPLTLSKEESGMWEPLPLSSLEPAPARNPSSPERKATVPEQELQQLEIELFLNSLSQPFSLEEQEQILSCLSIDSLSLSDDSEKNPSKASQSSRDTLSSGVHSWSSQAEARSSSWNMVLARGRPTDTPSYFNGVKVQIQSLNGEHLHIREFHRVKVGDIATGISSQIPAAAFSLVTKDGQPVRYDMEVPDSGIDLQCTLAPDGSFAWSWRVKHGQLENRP

Row | SMILES | IC50 [1] [nM] | IC50 ([2]; Homo sapiens, JJN-3, 96 h) [nM] | IC50 ([3]; Homo sapiens, KMS-12-BM, 96 h) [nM] | melting point [°C] | IC50 [2] [nM] | IC50 [3] [nM]
1 | CN1CCCC(Oc2ccc(Cl)cc2Nc2nccc(-c3cc(C#N)c4c(c3)C(C)(CO)CN4)n2)C1 (mixture of isomers) [Compound 39] | 7.4 | 87 | 2340 | 173 |  | 
2 | COc1cc(C(=O)NC2CNCC2O)c(Cl)cc1Nc1nccc(-c2cc(C#N)c3c(c2)C(C)(C)CN3)n1 (mixture of isomers) [Compound 124] | 1.6 | 525 | 437 |  |  | 
3 | COc1cc(C(=O)N2CC[C@@H]3CNC[C@@H]32)c(Cl)cc1Nc1nccc(-c2cc(C#N)c3c(c2)C(C)(C)CN3)n1 (relative stereo) [Compound 122] | 4.7 | 35 | ~4470 |  |  | 
4 | Cc1ccc(C#N)cc1Nc1nccc(-c2cc(C#N)c3c(c2)C(C)(CO)CN3)n1 (stereo not drawn) [Compound 26] | 3.7 | 255 | > 10000 | 195 |  | 
5 | Cc1ccc(Cl)cc1Nc1nccc(-c2cc(C#N)c3c(c2)C(C)(CO)CN3)n1 (stereo not drawn) [Compound 27] | 9.2 | 106 | > 10000 | 289 |  | 
6 | CC1(CO)CNc2c(C#N)cc(-c3ccnc(Nc4cc(Cl)ccc4Cl)n3)cc21 (stereo not drawn) [Compound 29] | 17.4 | 166 | > 10000 | 210 |  | 
7 | COc1ccc(C(F)(F)F)cc1Nc1nccc(-c2cc(C#N)c3c(c2)C(C)(CO)CN3)n1 (stereo not drawn) [Compound 30] | 51.3 | > 10000 | > 10000 | 224 |  | 
8 | COCCOc1cc(C2CCOCC2)ccc1Nc1nccc(-c2cc(C#N)c3c(c2)[C@@](C)(CO)CN3)n1 [Compound 61] | 11 | 186 | > 10000 |  |  | 
9 | C[C@]1(CO)CNc2c(C#N)cc(-c3ccnc(Nc4ccccc4P(C)(C)=O)n3)cc21 [Compound 62] | 912 |  |  | 228 |  | 
10 | CC(C)Oc1ccc(C(F)(F)F)cc1Nc1nccc(-c2cc(C#N)c3c(c2)C(C)(CO)CN3)n1 (stereo not drawn) [Compound 76] | 186 | 2340 | > 10000 |  |  | 
11 | COC(=O)c1cc(Nc2nccc(-c3cc(C#N)c4c(c3)C(C)(CO)CN4)n2)cc(C(F)(F)F)c1 (stereo not drawn) [Compound 77] | 46.8 | 126 | ~2460 |  |  | 
12 | COCc1cc(OC)c(Nc2nccc(-c3cc(C#N)c4c(c3)C(C)(C)CN4)n2)cc1Cl [Compound 88] | 85.1 | 178 | > 10000 |  |  | 
13 | COCCN1CCN(c2cc(OC)c(Nc3nccc(-c4cc(C#N)c5c(c4)C(C)(C)CN5)n3)cc2Cl)CC1 [Compound 89] | 20.9 | ~100 | > 10000 |  |  | 
14 | CC1(C)CNc2c(C#N)cc(-c3ccnc(Nc4cc(Cl)ccc4S(C)(=O)=O)n3)cc21 [Compound 90] | 219 | > 10000 | > 10000 |  |  | 
15 | CCN1CCN(c2cc(C)c(Nc3nccc(-c4cc(C#N)c5c(c4)C(C)(C)CN5)n3)cc2Cl)CC1 [Compound 91] | 7.2 | ~107 | > 10000 |  |  | 
16 | COc1cc(N2CCC(OC)CC2)c(Cl)cc1Nc1nccc(-c2cc(C#N)c3c(c2)C(C)(C)CN3)n1 [Compound 92] | 138 | 389 | > 10000 |  |  | 

Row | SMILES | IC50 [1] [nM] | IC50 ([2]; Homo sapiens, JJN-3, 96 h) [nM] | IC50 ([3]; Homo sapiens, KMS-12-BM, 96 h) [nM] | melting point [°C] | IC50 [2] [nM] | IC50 [3] [nM]
17 | COc1cc(N2CCN(C(C)C)CC2)c(Cl)cc1Nc1nccc(-c2cc(C#N)c3c(c2)C(C)(C)CN3)n1 [Compound 93] | 11.5 | 83 | > 10000 |  |  | 
18 | COCCN1CCC(c2cc(OC)c(Nc3nccc(-c4cc(C#N)c5c(c4)C(C)(C)CN5)n3)cc2C)CC1 [Compound 94] | 9.8 | 166 | > 10000 |  |  | 
19 | COc1cc(OCCN2CCN(C)CC2)c(Cl)cc1Nc1nccc(-c2cc(C#N)c3c(c2)C(C)(C)CN3)n1 [Compound 95] | 9.3 | 129 | > 10000 |  |  | 
20 | COc1cc(S(C)(=O)=O)c(F)cc1Nc1nccc(-c2cc(C#N)c3c(c2)C(C)(C)CN3)n1 [Compound 96] | 9.1 | ~81 | > 10000 |  |  | 
21 | COc1cc(N2CCC(O)C2)c(Cl)cc1Nc1nccc(-c2cc(C#N)c3c(c2)C(C)(C)CN3)n1 (stereo not drawn) [Compound 97] | 45.7 | 59 | 4360 |  |  | 
22 | COc1cc(N2CCN(C3CC3)CC2)c(Cl)cc1Nc1nccc(-c2cc(C#N)c3c(c2)C(C)(C)CN3)n1 [Compound 98] | 129 | 105 | > 10000 |  |  | 
23 | CNCCOc1ccc(Cl)cc1Nc1nccc(-c2cc(C#N)c3c(c2)C(C)(C)CN3)n1 [Compound 109] | 53.7 | 676 |  | 152 |  | 
24 | COc1cc(C(=O)N2CC(O)C2)c(Cl)cc1Nc1nccc(-c2cc(C#N)c3c(c2)C(C)(C)CN3)n1 [Compound 110] | 4.2 | 193 | > 10000 |  |  | 
25 | COc1cc(C(=O)NC2CCC(O)C2)c(Cl)cc1Nc1nccc(-c2cc(C#N)c3c(c2)C(C)(C)CN3)n1 (stereo not drawn) [Compound 115] | 4.9 | 166 | > 10000 |  |  | 
26 | COc1cc(C(=O)NC2CCC(O)C2)c(Cl)cc1Nc1nccc(-c2cc(C#N)c3c(c2)C(C)(C)CN3)n1 (stereo not drawn) [Compound 116] | 6.8 |  |  |  | 162 | > 10000
27 | COc1cc(C(=O)N2CC3C(CO)C3C2)c(Cl)cc1Nc1nccc(-c2cc(C#N)c3c(c2)C(C)(C)CN3)n1 (stereo not drawn) [Compound 117] | 4.7 | 19 | 1550 |  |  | 
28 | COc1cc(C(=O)NC2CC(F)(F)C2)c(Cl)cc1Nc1nccc(-c2cc(C#N)c3c(c2)C(C)(C)CN3)n1 [Compound 118] | 25.7 | 933 | > 10000 |  |  | 
29 | COc1cc(C(=O)N2CCCC(O)CC2)c(Cl)cc1Nc1nccc(-c2cc(C#N)c3c(c2)C(C)(C)CN3)n1 (stereo not drawn) [Compound 119] | 7.1 | 28 | 1380 |  |  | 
30 | COc1cc(C(=O)N2CC3CC(C2)C3O)c(Cl)cc1Nc1nccc(-c2cc(C#N)c3c(c2)C(C)(C)CN3)n1 (stereo not drawn) [Compound 120] | 15.5 | 25 | > 10000 |  |  | 
31 | CNC(=O)c1ccc(C)c(Nc2ncnc(-c3cc(C#N)c4c(c3)[C@@](C)(CO)CN4)n2)c1 [Compound 214] | 6.9 |  |  | 252 |  | 
